Reference: the supplement of paper PMC11208160

experiment: recombinant UMI read abundance after kanamycin selection (control-corrected) (log10(CPM+1)); higher = more efficient recombination; extreme values may be limits of the assay; sequences stand for … in AGTGCAGAGAAAATCGGCCAGTTTTCTCTGCCTGCAGTCCGCATGCCGTGGGACCCCTTGGGTTCTAACCTGTTGCCTAGATTTATGCAGCGGACTGCCTTTCTCCCAAAGTGATAAACCGG…AGGTTGGTTTCACT; site = the 11-nt donor
Outline: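 Each donor and donor-binding-loop pair was tracked by a 12-nt UMI on a plasmid carrying a promoterless kanamycin gene. With a second plasmid supplying a fixed target and T7-inducible IS621 bridge recombinase, the pool was plated in Escherichia coli on IPTG (0.07 mM) plus kanamycin or unselected. Sequencing of recombinant UMIs across the donor–target junction gave counts expressed as log10(CPM+1) after replicate averaging and control-derived scaling.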
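Note: IS621 bridge recombinase in Escherichia coli cells against a fixed T5 target plasmid.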

Sequence | recombinant UMI read abundance (log10)
CGCCGTGCATGGACCGGTTTTCCCGGTAATCCGTATTTGCT (site CGCCGTACTAG) | 1.29
CGCCGTGCATGGACCGGTTTTCCCGGTAATCCGTATTTGCT (site CGCCGTCCTAG) | 0.00563
CGCCGTGCATGGACCGGTTTTCCCGGTAATCCGTATTTGCT (site CGCCGTGCTAG) | 1.97
CGCCGTGCATGGACCGGTTTTCCCGGTAATCCGTATTTGCT (site CGCCGTTCTAG) | 0.0147
CGCCGTTCATGGACCGGTTTTCCCGGTAATCCGTATTTGCT (site CGCCGTACTAG) | 0
CGCCGTTCATGGACCGGTTTTCCCGGTAATCCGTATTTGCT (site CGCCGTCCTAG) | 0.00374
CGCCGTTCATGGACCGGTTTTCCCGGTAATCCGTATTTGCT (site CGCCGTGCTAG) | 0
CGCCGTTCATGGACCGGTTTTCCCGGTAATCCGTATTTGCT (site CGCCGTTCTAG) | 2.41
CGCCTGACATGGACCGGTTTTCCCGGTAATCCGTATTTGAG (site CGCCTGACTCT) | 0.947
CGCGAGTCATGGACCGGTTTTCCCGGTAATCCGTATTTGCC (site CGAGAGTCTGG) | 0
CGCGAGTCATGGACCGGTTTTCCCGGTAATCCGTATTTGCC (site CGCGAGTCTGG) | 2.43
CGCGAGTCATGGACCGGTTTTCCCGGTAATCCGTATTTGCC (site CGGGAGTCTGG) | 0
CGCGAGTCATGGACCGGTTTTCCCGGTAATCCGTATTTGCC (site CGTGAGTCTGG) | 0.681
CGCGAGTCATGGACCGGTTTTCCCGGTAATCCGTATTTGTC (site CGCGAGTCTGA) | 2.8
CGCGGGACATGGACCGGTTTTCCCGGTAATCCGTATTTGGC (site CGCGGGACTGC) | 2.25
CGCTAGACATGGACCGGTTTTCCCGGTAATCCGTATTTGAG (site CGATAGACTCT) | 0.0154
CGCTAGACATGGACCGGTTTTCCCGGTAATCCGTATTTGAG (site CGCTAGACTCT) | 1.64
CGCTAGACATGGACCGGTTTTCCCGGTAATCCGTATTTGAG (site CGGTAGACTCT) | 0.181
CGCTAGACATGGACCGGTTTTCCCGGTAATCCGTATTTGAG (site CGTTAGACTCT) | 0.00455

Sequence | recombinant UMI read abundance (log10)
CGCTCCTCATGGACCGGTTTTCCCGGTAATCCGTATTTGCC (site CACTCCTCTGG) | 2.35
CGCTCCTCATGGACCGGTTTTCCCGGTAATCCGTATTTGCC (site CCCTCCTCTGG) | 1.72
CGCTCCTCATGGACCGGTTTTCCCGGTAATCCGTATTTGCC (site CGCTCCTCTGG) | 3.14
CGCTCCTCATGGACCGGTTTTCCCGGTAATCCGTATTTGCC (site CTCTCCTCTGG) | 2.25
CGCTGTCCATGGACCGGTTTTCCCGGTAATCCGTATTTGCA (site CGCTGTCCTTG) | 0.989
CGCTGTGCATGGACCGGTTTTCCCGGTAATCCGTATTTGCA (site CGCTGTGCTTG) | 1.87
CGGAACACATGGACCGGTTTTCCCGGTAATCCGTATTTGCA (site AGGAAGACTTG) | 0.0118
CGGAACACATGGACCGGTTTTCCCGGTAATCCGTATTTGCA (site CGGAACACTTG) | 2.5
CGGAAGACATGGACCGGTTTTCCCGGTAATCCGTATTTGCC (site AGGAAGACTTG) | 0
CGGAAGACATGGACCGGTTTTCCCGGTAATCCGTATTTGCC (site CGGAAGACTGG) | 2.59
CGGAAGCCATGGACCGGTTTTCCCGGTAATCCGTATTTGTC (site CGGAAGCCTGA) | 0
CGGAAGCCATGGACCGGTTTTCCCGGTAATCCGTATTTGTC (site CGGAATCCTAA) | 0.00548
CGGAATACATGGACCGGTTTTCCCGGTAATCCGTATTTGTT (site CGGAATACTAA) | 2.18
CGGAATACATGGACCGGTTTTCCCGGTAATCCGTATTTGTT (site CGGAATCCTAA) | 0
CGGAATACATGGACCGGTTTTCCCGGTAATCCGTATTTGTT (site CGGAATGCTAA) | 0
CGGAATACATGGACCGGTTTTCCCGGTAATCCGTATTTGTT (site CGGAATTCTAA) | 0
CGGAATCCATGGACCGGTTTTCCCGGTAATCCGTATTTGTG (site CGGAATCCTAA) | 0
CGGAATCCATGGACCGGTTTTCCCGGTAATCCGTATTTGTG (site CGGAATCCTCA) | 0.656
CGGAATCCATGGACCGGTTTTCCCGGTAATCCGTATTTGTG (site CGGAATCCTGA) | 0

Sequence | recombinant UMI read abundance (log10)
CGGAATCCATGGACCGGTTTTCCCGGTAATCCGTATTTGTG (site CGGAATCCTTA) | 0
CGGAATCCATGGACCGGTTTTCCCGGTAATCCGTATTTGTT (site ACGAATCCTAA) | 0.0109
CGGAATCCATGGACCGGTTTTCCCGGTAATCCGTATTTGTT (site AGAAATCCTAA) | 0
CGGAATCCATGGACCGGTTTTCCCGGTAATCCGTATTTGTT (site AGGAAACCTAA) | 0
CGGAATCCATGGACCGGTTTTCCCGGTAATCCGTATTTGTT (site AGGAATCCTAA) | 0
CGGAATCCATGGACCGGTTTTCCCGGTAATCCGTATTTGTT (site AGGAATCCTAG) | 0
CGGAATCCATGGACCGGTTTTCCCGGTAATCCGTATTTGTT (site AGGAATCCTTA) | 0
CGGAATCCATGGACCGGTTTTCCCGGTAATCCGTATTTGTT (site AGGAATTCTAA) | 0
CGGAATCCATGGACCGGTTTTCCCGGTAATCCGTATTTGTT (site AGGATTCCTAA) | 0
CGGAATCCATGGACCGGTTTTCCCGGTAATCCGTATTTGTT (site AGGGATCCTAA) | 0.0088
CGGAATCCATGGACCGGTTTTCCCGGTAATCCGTATTTGTT (site CAGAAGCCTAA) | 0.0058
CGGAATCCATGGACCGGTTTTCCCGGTAATCCGTATTTGTT (site CAGAATACTAA) | 0
CGGAATCCATGGACCGGTTTTCCCGGTAATCCGTATTTGTT (site CAGAATCCTAA) | 0
CGGAATCCATGGACCGGTTTTCCCGGTAATCCGTATTTGTT (site CAGAATCCTAT) | 0
CGGAATCCATGGACCGGTTTTCCCGGTAATCCGTATTTGTT (site CAGAATCCTGA) | 0
CGGAATCCATGGACCGGTTTTCCCGGTAATCCGTATTTGTT (site CAGAGTCCTAA) | 0.0165
CGGAATCCATGGACCGGTTTTCCCGGTAATCCGTATTTGTT (site CAGTATCCTAA) | 0.0125
CGGAATCCATGGACCGGTTTTCCCGGTAATCCGTATTTGTT (site CATAATCCTAA) | 0
CGGAATCCATGGACCGGTTTTCCCGGTAATCCGTATTTGTT (site CCAAATCCTAA) | 0
